Laboratory results published in PubChem BioAssay (NCI).
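Test compounds were applied to cells in 96-well plates for 48 hours at 5 doses. TGI: total growth inhibition.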

Tests used:
Experiment in all cases: growth of human tumour cells (NCI), 48 h
K-562 leukemia = test system: K-562 leukemia
786-0 renal = test system: 786-0 renal
HOP-92 NSCLC = test system: HOP-92 NSCLC
MALME-3M melanoma = test system: MALME-3M melanoma
MOLT-4 leukemia = test system: MOLT-4 leukemia
SK-OV-3 ovarian = test system: SK-OV-3 ovarian
NCI-H226 lung = test system: NCI-H226 lung
HOP-62 NSCLC = test system: HOP-62 NSCLC
SK-MEL-2 melanoma = test system: SK-MEL-2 melanoma
NCI-H23 lung = test system: NCI-H23 lung
SF-268 CNS = test system: SF-268 CNS
HCT-15 colon = test system: HCT-15 colon
SK-MEL-28 melanoma = test system: SK-MEL-28 melanoma
HS 578T breast = test system: HS 578T breast
SNB-75 CNS = test system: SNB-75 CNS
MDA-MB-435 = test system: MDA-MB-435
PC-3 prostate = test system: PC-3 prostate

SMILES | TGI (K-562 leukemia) | TGI (786-0 renal) | TGI (HOP-92 NSCLC) | TGI (MALME-3M melanoma) | TGI (MOLT-4 leukemia) | TGI (SK-OV-3 ovarian) | TGI (NCI-H226 lung) | TGI (HOP-62 NSCLC) | TGI (SK-MEL-2 melanoma) | TGI (NCI-H23 lung) | TGI (SF-268 CNS) | TGI (HCT-15 colon) | TGI (SK-MEL-28 melanoma) | TGI (HS 578T breast) | TGI (SNB-75 CNS) | TGI (MDA-MB-435) | TGI (PC-3 prostate)
CN1N=C2c3ccccc3CC[C@H]2C1c1cccc(O)c1 (stereo partly specified) | > 100 µM | > 100 µM | > 100 µM | 5.01 µM | > 100 µM | > 100 µM | > 100 µM | > 100 µM | > 100 µM | > 100 µM | > 100 µM | > 100 µM | > 100 µM |  |  |  | 
Fc1ccc2c3c([nH]c2c1)CCNC3 | > 100 µM | > 100 µM | 85.9 µM | > 100 µM | > 100 µM | > 100 µM | > 100 µM | > 100 µM |  | > 100 µM | > 100 µM | > 100 µM | > 100 µM | > 100 µM | > 100 µM | > 100 µM | 
O=C1C=C2CC[C@H]3[C@@H]4CC[C@H](OC(=O)c5cccc6cc7ccccc7nc56)[C@H]4CC[C@@H]3[C@H]2CC1 | > 100 µM | > 100 µM |  | > 100 µM | > 100 µM | > 100 µM | > 100 µM | > 100 µM | > 100 µM | > 100 µM | > 100 µM | > 100 µM | > 100 µM | > 100 µM | > 100 µM | > 100 µM | > 100 µM
O=C(OCc1ccccc1)N1CCCc2c(n(S(=O)(=O)c3ccccc3)c3ccccc23)C1 | > 100 µM | > 100 µM | > 100 µM | > 100 µM | > 100 µM | > 100 µM | > 100 µM | > 100 µM | > 100 µM | > 100 µM | > 100 µM | > 100 µM | > 100 µM | > 100 µM |  |  | > 100 µM
CN(C)Cc1cc(/C=C/C(=O)c2ccc(Cl)c(Cl)c2)cc(CN(C)C)c1O | 91.2 µM | 21.3 µM |  | 22.7 µM | 32.3 µM | 36.9 µM |  | 38 µM | 31 µM |  | 23.7 µM |  | 26.9 µM |  | 21.1 µM | 23.3 µM | 28.2 µM
CCN(CC)CCCCC1CCN(CC(=O)N2c3cc(Cl)ccc3NC(=O)CC2C)CC1 (stereo unspecified) | > 100 µM | > 100 µM | > 100 µM | > 100 µM | > 100 µM | > 100 µM | > 100 µM | > 100 µM |  | > 100 µM | > 100 µM | > 100 µM | > 100 µM |  |  |  | 
Nc1ncnc2c1ncn2C1CC(OC2CCCCO2)C(CO)O1 (stereo unspecified) | > 100 µM | > 100 µM | > 100 µM | > 100 µM | > 100 µM | > 100 µM | > 100 µM | > 100 µM | > 100 µM | > 100 µM | > 100 µM | > 100 µM | > 100 µM |  |  |  | 
CCCc1c(C(=O)OCC)[nH]c(C(=O)CCC(=O)c2[nH]c(C(=O)OCC)c(CCC)c2C(=O)OCC)c1C(=O)OCC | > 100 µM | > 100 µM | > 100 µM | > 100 µM | > 100 µM | > 100 µM | > 100 µM |  | > 100 µM | > 100 µM | > 100 µM | > 100 µM | > 100 µM |  | 62.5 µM |  | 
O=C(/C=C/c1ccc2c(c1)OCO2)CC(=O)/C=C/c1ccc2c(c1)OCO2 | > 100 µM | > 100 µM |  | > 100 µM | > 100 µM | > 100 µM | > 100 µM | > 100 µM | > 100 µM | > 100 µM |  | > 100 µM |  | > 100 µM | > 100 µM | > 100 µM | > 100 µM
CC(=O)CCC[C@H](C)[C@@H](O)[C@@H]1O[C@H]([C@@]2(C)CCC(=O)O2)C[C@H]1C(=O)O | > 100 µM | > 100 µM |  |  | > 100 µM | > 100 µM | > 100 µM | > 100 µM | > 100 µM | > 100 µM | > 100 µM | > 100 µM | > 100 µM | > 100 µM | > 100 µM | > 100 µM | > 100 µM
O=C1OC(CS(=O)(=O)c2ccccc2)CC1O (stereo unspecified) | > 100 µM | > 100 µM |  | > 100 µM | > 100 µM | > 100 µM | > 100 µM | > 100 µM | > 100 µM | > 100 µM | > 100 µM | > 100 µM | > 100 µM |  |  | > 100 µM | > 100 µM
NC(=O)OCc1c(-c2ccccc2)nn(-c2ccccc2)c1COC(N)=O |  | > 100 µM | > 100 µM | > 100 µM |  |  | > 100 µM |  | > 100 µM | > 100 µM | > 100 µM | > 100 µM | > 100 µM |  | > 100 µM | > 100 µM | > 100 µM
CC1c2cc(c3c(c2O)CN([C@@H](C)C2CCCCC2)CO3)C(C)c2cc(c3c(c2O)CN([C@@H](C)C2CCCCC2)CO3)C(C)c2cc(c3c(c2O)CN([C@@H](C)C2CCCCC2)CO3)C(C)c2cc1c1c(c2O)CN([C@@H](C)C2CCCCC2)CO1 (stereo partly specified) | 2.01 µM | 2.4 µM | 2.85 µM | 2.98 µM | 9.63 µM | 2.72 µM | 2.22 µM |  | 6.2 µM |  | 2.85 µM | 2.92 µM | 3.55 µM | 3.15 µM | 2.77 µM | 3.62 µM | 
CCOC(=O)Nn1c(C)cc(C(=O)OC)c1C | > 100 µM | > 100 µM |  | > 100 µM | > 100 µM | > 100 µM | > 100 µM | > 100 µM | > 100 µM | > 100 µM | > 100 µM | > 100 µM | > 100 µM |  | > 100 µM |  | 
C=C(CN)CO[Si](C)(C)C(C)(C)C | > 100 µM | > 100 µM |  | > 100 µM | > 100 µM | > 100 µM | > 100 µM | > 100 µM | > 100 µM | > 100 µM | > 100 µM | > 100 µM | > 100 µM | > 100 µM | > 100 µM | > 100 µM | > 100 µM
CC1=C2CN(C(=O)OCC(C)C)CCC2C2=C(C(=O)c3ccccc3C2=O)C1C (stereo unspecified) | > 10 µM | > 10 µM | > 10 µM | > 10 µM | > 10 µM | > 10 µM |  | > 10 µM |  | > 10 µM | > 10 µM | > 10 µM | > 10 µM |  | > 10 µM | > 10 µM | > 10 µM
